≈ marks a conversion by molar mass, not a printed value.

This test has as its system Plasmodium falciparum. In words: Antiplasmodial activity against Plasmodium falciparum 3D7. Type of test: functional, organism-based.
A word on the IC50: it is the concentration that gives 50% inhibition. A high value points to weaker potency. The compound `CC(=O)Cc1cc(O)cc2oc(C)cc(=O)c12` showed an IC50 of 4.5 µg/mL (≈ 19.4 µM).
For `Cc1cc2cc(=O)cc3oc(C)cc(o1)c23` [ANHYDROBARAKOL] the value was 7.8 µg/mL (≈ 36.4 µM); for `CC(=O)Cc1cc(O)cc2c1C(=O)CC(C)(Cc1cc(=O)c3c(CC(C)=O)cc(O)cc3o1)O2` (stereo not drawn) [CHROBISIAMONE A], 2.6 µg/mL (≈ 5.6 µM).

The record behind these values is ChEMBL document CHEMBL1157453, “Chrobisiamone A, a new bischromone from Cassia siamea and a biomimetic transformation of 5-acetonyl-7-hydroxy-2-methylchromone into cassiarin A” (Bioorg Med Chem Lett, 2008).
